This assay deals with T1, A. placomyces laccase.
T1 construct: gene EC 1.10.3.2; native, purified from fruiting bodies; 68 kDa monomer
Nature of the assay: spectrophotometric oxidation assay, Lineweaver-Burk plot. The format is biochemical, Agaricus placomyces. Particulars: 50 mM sodium acetate, pH 5.2, 30°C.

Structures can show the parent of a compound that is named as a salt.

A word on the Km: it is the substrate concentration at which the rate is half of its maximum.

With `CCn1c(=NN=c2sc3cc(S(=O)(=O)O)ccc3n2CC)sc2cc(S(=O)(=O)O)ccc21` [ABTS, 2,7′-azinobis[3-ethylbenzothiazolone-6-sulfonic acid] diammonium salt], the Michaelis constant (Km) was determined as 775 µM. `Oc1ccc(O)cc1` [hydroquinone]: the Michaelis-Menten constant (Km) came out at 392 µM.

(Values after PMC3471028, “A Laccase with Antiproliferative and HIV-I Reverse Transcriptase Inhibitory Activities from the Mycorrhizal Fungus Agaricus placomyces” (Journal of Biomedicine and Biotechnology, 2012).)
